From ChEMBL document CHEMBL1144063, “ent-kaurane diterpenoids from Isodon lungshengensis” (J Nat Prod, 1999)
Values after ≈ are worked out from the molar mass of the structure shown.

Each compound was assayed on K562 (assay: Cytotoxicity against human K-562 cells by MTT assay).
Format: functional, cell-based

SMILES | IC50
C=C1C(=O)[C@]23C[C@H]1C[C@H](O)[C@H]2[C@@]1(C)[C@H]([C@@H](O)C3)C(C)(C)[C@@H](OC(C)=O)[C@@H](OC(C)=O)[C@@H]1O [LUNGSHENGENIN A] | 11.7 µg/mL (≈ 26 µM)
C=C1C(=O)[C@]23C[C@H]1C[C@H](O)[C@H]2[C@]1(C)C[C@H](OC(C)=O)[C@H](OC(C)=O)C(C)(C)[C@H]1[C@@H](OC(C)=O)C3 [LUNGSHENGENIN C] | 1.14 µg/mL (≈ 2.39 µM)
C=C1C(=O)[C@@]23CC(=O)[C@@H]4C(C)(C)[C@@H](OC(C)=O)[C@@H](OC(C)=O)[C@H](O)[C@@]4(C)[C@@H]2[C@@H](O)C[C@@H]1C3 [LUNGSHENGENIN G] | 3.29 µg/mL (≈ 7.34 µM)
